The source of these data is article PMC3408606 (Thrombosis and haemostasis, 2011).

A word on the Kd: it is the constant that tells how readily two partners part at equilibrium. A high value points to weaker binding.

The target of assay [1] is T1, triplatin (Triatoma infestans, UniProt Q18NS7).
The target of assay [2] is T1, triplatin. Kind of assay: biochemical.
For another assay, the system named is ApoD. Kind of assay: Isothermal titration calorimetry of ligand binding to ApoD. Conditions: ITC, ApoD expressed in HEK293 cells. (In general: Isothermal titration calorimetry measures the heat released or taken up as one component is titrated into another.)
The next assay concerns platelets. Kind of assay: Platelet aggregation. Conditions: for Effect on ADP-induced platelet aggregation: indometacin 50 μM. The format is cell-based, human.

Structures are written as SMILES. Read-outs that look alike come from different tables or passages of the source.

T1 sequence (Q18NS7 19-182 limits assumed): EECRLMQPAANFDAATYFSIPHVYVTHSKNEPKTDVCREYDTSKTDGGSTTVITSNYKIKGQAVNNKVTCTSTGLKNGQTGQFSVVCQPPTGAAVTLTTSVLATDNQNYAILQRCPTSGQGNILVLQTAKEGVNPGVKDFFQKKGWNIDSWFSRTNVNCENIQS

`CCCCC/C=C\C/C=C\C[C@H](O)/C=C/C=C\CCCC(=O)O` [9s-HETE] had a Kd on triplatin [1] above 1000 nM.

Consider `CCCCC/C=C\C[C@H](O)/C=C/C=C\C/C=C\CCCC(=O)O` [12(S)-HETE], for which the Binding to triplatin result at triplatin [1] (ITC, Figure 3 or not shown) is “not observed”.

As to `CCCCC[C@H](O)/C=C/C=C\C/C=C\C/C=C\CCCC(=O)O` [15s-HETE], on triplatin [2], the Kd is above 1000 nM.

Regarding `O=C(O)CCC/C=C\C/C=C\C/C=C\C/C=C\CCCCCO` [20-HETE], the Binding to triplatin result at triplatin [1] (ITC, Figure 3 or not shown) is “not observed”.

With `Nc1ncnc2c1ncn2[C@@H]1O[C@H](COP(=O)(O)OP(=O)(O)O)[C@@H](O)[C@H]1O` [ADP, adenosine diphosphate], the Binding to triplatin result at triplatin [1] (ITC, Figure 3 or not shown) is recorded as “not observed”.

As for `CCCCC/C=C\C/C=C\C/C=C\C/C=C\CCCC(=O)O` [Arachidonic acid, arachidonic acid], the “Binding to ApoD” value with ApoD was “failed to detect binding”. Moreover, the Binding to triplatin entry at triplatin [1] (ITC, Figure 3 or not shown) is reported as “not observed”.

On to `NCCc1c[nH]cn1` [Histamine, histamine], for which the Binding to triplatin result at triplatin [1] (ITC, Figure 3 or not shown) was “not observed”.

Regarding `CCCCC/C=C\C\C=C/C=C/C=C/[C@@H](SC[C@H](NC(=O)CC[C@H](N)C(=O)O)C(=O)NCC(=O)O)[C@@H](O)CCCC(=O)O` [LTC4], the Binding to triplatin result at triplatin [1] is “not observed”.

Take `CCCCC[C@H](O)/C=C/[C@H]1[C@H](O)CC(=O)[C@@H]1CCCCCCC(=O)O` [PGE1]: the Binding to triplatin entry at triplatin [1] is given as “not observed”.

As to `CCCCC[C@H](O)/C=C/[C@@H]1[C@@H](C/C=C\CCCC(=O)O)[C@@H](O)C[C@H]1O` [PGF2α], in the assay with ApoD, the “Binding to ApoD” value is “failed to detect binding”. Further, the ΔG at triplatin [1] (calculated free energy, ITC 30°C, n.d. = no binding detected) is -9.25 kcal/mol. This compound registered a Kd at triplatin [2] of 215 ± 10 nM.

At triplatin [1], `CCCCC[C@H](O)/C=C/[C@H]1C(=O)C=C[C@@H]1C/C=C\CCCC(=O)O` [PGJ2] showed a Kd of 111 ± 3.4 nM, a TΔS of -1.49 kcal/mol, a ΔG of -9.65 kcal/mol and a ΔH of -11.14 ± 0.38 kcal/mol.

For `O=C(O)CCC/C=C\C[C@@H]1[C@H](CNNC(=O)Nc2ccccc2)[C@H]2CC[C@@H]1O2` [SQ29548], in the assay on platelets, the “Inhibition of collagen-induced platelet aggregation” value is listed as “partial inhibition”.

Regarding `CCCCC[C@H](O)/C=C/[C@H]1OC(O)C[C@H](O)[C@@H]1C/C=C\CCCC(=O)O` (stereo partly shown) [TXB2], at triplatin [1], the Kd came to 355 ± 6.7 nM, the TΔS is -2.58 kcal/mol, the ΔG is -8.95 kcal/mol and the ΔH is -11.53 ± 0.92 kcal/mol.

For the compound `CCCCC[C@H](O)/C=C/[C@@H]1[C@@H](C/C=C\CCCC(=O)O)[C@H]2CO[C@@H]1C2` [U46619], on triplatin [1], the Kd worked out at 294 ± 51 nM, the TΔS is -2.46 kcal/mol, the ΔG is -9.06 kcal/mol and the ΔH was -11.52 ± 0.38 kcal/mol.

As for `CCCCC[C@H](O)/C=C/[C@H]1CC2CC(C2)[C@@H]1C/C=C\CCCC(=O)O` [cTXA2], in the assay with ApoD, the “Binding to ApoD” value was “failed to detect binding”. Moreover, at triplatin [1], the affinity, expressed as Kd, was 369 ± 103 nM; the TΔS was -3.90 kcal/mol; the ΔG is -8.93 kcal/mol; the ΔH was -12.83 ± 0.73 kcal/mol.

In the case of `COc1ccc2c(c1)c(CC(=O)O)c(C)n2C(=O)c1ccc(Cl)cc1` [indometacin], the “Effect on ADP-induced platelet aggregation” value was “not affected” in the assay with platelets (ADP 1 μM (low dose)) and “attenuated” in the assay on platelets (ADP 10 μM). Further, the “Inhibition of collagen-induced platelet aggregation” value in the assay with platelets (collagen 6.6 μg/ml, inhibitor alone: indometacin 50 μM, SQ29548 0.2 μM, triplatin 1 μM) is reported as “partial inhibition”.
